Reference: ChEMBL document CHEMBL4665770, “Design and Discovery of Natural Cyclopeptide Skeleton Based Programmed Death Ligand 1 Inhibitor as Immune Modulator for Cancer Therapy” (J Med Chem, 2020)

Legend:
[1] = target: Programmed cell death protein 1/Programmed cell death 1 ligand 1 (Homo sapiens, UniProt Q9NZQ7); assay: Inhibition of PD1-Tag2/PD-L1-Tag1 (unknown origin) protein-protein interaction preincubated for 15 mins followed by addition of anti-Tag1-Eu3+ and anti-Tag2-XL665 measured after 3 hrs by HTRF assay; format: protein-complex assay
[2] = target: Programmed cell death protein 1/Programmed cell death 1 ligand 1 (Homo sapiens) (UniProt Q15116+Q9NZQ7); assay: Inhibition of PD1-Tag2/PD-L1-Tag1 (unknown origin) protein-protein interaction at 20 uM preincubated for 15 mins followed by addition of anti-Tag1-Eu3+ and anti-Tag2-XL665 measured after 3 hrs by HTRF assay relative to control; format: protein-complex assay; conditions: time 195.0 min

Programmed cell death protein 1/Programmed cell death 1 ligand 1, sequence (Q15116 whole entry): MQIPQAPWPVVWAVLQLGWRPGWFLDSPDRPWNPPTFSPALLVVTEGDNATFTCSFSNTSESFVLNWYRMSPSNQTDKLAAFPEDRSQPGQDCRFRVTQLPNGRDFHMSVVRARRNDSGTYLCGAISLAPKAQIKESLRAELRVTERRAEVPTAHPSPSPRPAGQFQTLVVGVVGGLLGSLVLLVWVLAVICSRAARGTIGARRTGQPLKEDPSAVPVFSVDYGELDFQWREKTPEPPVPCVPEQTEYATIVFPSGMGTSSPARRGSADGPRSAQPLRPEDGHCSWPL
Programmed cell death protein 1/Programmed cell death 1 ligand 1, sequence (Q9NZQ7 whole entry): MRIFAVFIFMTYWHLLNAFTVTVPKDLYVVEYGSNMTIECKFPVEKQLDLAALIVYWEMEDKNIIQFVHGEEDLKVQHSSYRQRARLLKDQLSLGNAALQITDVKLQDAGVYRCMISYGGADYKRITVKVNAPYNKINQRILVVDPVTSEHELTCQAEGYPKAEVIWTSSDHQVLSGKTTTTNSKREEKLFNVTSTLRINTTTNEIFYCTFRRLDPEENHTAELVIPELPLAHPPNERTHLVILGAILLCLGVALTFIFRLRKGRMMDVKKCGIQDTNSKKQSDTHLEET

SMILES | IC50 [1] [µM] | inhibition [2] [%]
CC(C)C[C@@H]1NC(=O)[C@H](CC(=O)O)NC(=O)[C@H]([C@@H](C)O)NC(=O)[C@@H]2CCCN2C(=O)[C@@H](Cc2ccccc2)NC(=O)[C@H](CC(C)C)NC(=O)[C@H](CCCNC(=N)N)NC(=O)[C@H](C(C)C)NC(=O)[C@@H]2CCCN2C(=O)[C@@H](Cc2ccccc2)NC1=O | 6.35 | 72.4
CC(C)C[C@@H]1NC(=O)[C@H](CC(=O)O)NC(=O)[C@H](C(C)C)NC(=O)[C@@H]2CCCN2C(=O)[C@@H](Cc2ccccc2)NC(=O)[C@H](CC(C)C)NC(=O)[C@H](CCCNC(=N)N)NC(=O)[C@H](C(C)C)NC(=O)[C@@H]2CCCN2C(=O)[C@@H](Cc2ccccc2)NC1=O | 9.63 | 57.3
CC(C)C[C@@H]1NC(=O)[C@H](CCCNC(=N)N)NC(=O)[C@H](C(C)C)NC(=O)[C@@H]2CCCN2C(=O)[C@@H](Cc2ccccc2)NC(=O)[C@H](C)NC(=O)[C@H](CC(=O)O)NC(=O)[C@H](C)NC(=O)[C@@H]2CCCN2C(=O)[C@@H](Cc2ccccc2)NC1=O | 27.5 | 51.9
CCCC[C@@H]1NC(=O)[C@H](CC(=O)O)NC(=O)[C@H]([C@@H](C)O)NC(=O)[C@@H]2CCCN2C(=O)[C@@H](Cc2c[nH]c3ccccc23)NC(=O)[C@H](CC(C)C)NC(=O)[C@H](CCCNC(=N)N)NC(=O)[C@H](C(C)C)NC(=O)[C@@H]2CCCN2C(=O)[C@@H](Cc2ccccc2)NC1=O | 5.02 | 82.1
CC(C)C[C@@H]1NC(=O)[C@H](CC(=O)O)NC(=O)[C@H](C(C)C)NC(=O)[C@@H]2CCCN2C(=O)[C@@H](Cc2c[nH]c3ccccc23)NC(=O)[C@H](CC(C)C)NC(=O)[C@H](CCCNC(=N)N)NC(=O)[C@H](C(C)C)NC(=O)[C@@H]2CCCN2C(=O)[C@@H](Cc2ccccc2)NC1=O | 7.42 | 66.8
CC[C@H](C)[C@@H]1NC(=O)[C@H](CC(=O)O)NC(=O)[C@H]([C@@H](C)O)NC(=O)[C@@H]2CCCN2C(=O)[C@@H](Cc2c[nH]c3ccccc23)NC(=O)[C@H](CC(C)C)NC(=O)[C@H](CCCNC(=N)N)NC(=O)[C@H]([C@@H](C)CC)NC(=O)[C@@H]2CCCN2C(=O)[C@@H](Cc2ccccc2)NC1=O | 5.37 | 80.4
CC(C)C[C@@H]1NC(=O)[C@H](CCCNC(=N)N)NC(=O)[C@H](C(C)C)NC(=O)[C@@H]2CCCN2C(=O)[C@@H](Cc2ccccc2)NC(=O)[C@H](CC(C)C)NC(=O)[C@H](CC(=O)O)NC(=O)[C@H](C)NC(=O)[C@@H]2CCCN2C(=O)[C@@H](Cc2ccccc2)NC1=O | 8.1 | 66.4
